Measured values: patent US20220323406A1, “METHODS AND COMPOSITIONS FOR DIFFERENTIATING STEM CELLS” (Massachusetts Institute of Technology, priority 2019, published 2022)

Key:
Settings in all cases: primary screen
[1] = tested on: ENR+CD organoids (ISC to Paneth cell differentiation); assay: Primary screen: basal (non-stimulated) lysozyme secretion LYZ.NS, 2.5-D 384-well ENR+CD organoid differentiation; assay type: cell-based, mouse
Excerpt: (§1) High-throughput screening.

[2] = tested on: ENR+CD organoids (ISC to Paneth cell differentiation); assay: Primary screen: CCh-stimulated lysozyme secretion LYZ.S, 2.5-D 384-well ENR+CD organoid differentiation; assay type: cell-based, mouse
Excerpt: as §1

ENR+CD organoids = assay: Primary screen: ATP (CellTiter-Glo 3D, CTG) cell number/viability, 2.5-D 384-well ENR+CD organoids;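 also: compounds given at plating and again on day 3 over a 6-day differentiation from ENR+CV stem-cell-enriched precursors, ATP measured on day 6, plate median as control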

| SMILES | Dose.FC.LYZ.NS (log2 fold change) ([1]; dose 0.08 uM) | Z.LYZ.NS (standard z score) ([1]; dose 0.08 uM) | Dose.FC.LYZ.NS (log2 fold change) ([1]; dose 0.40 uM) | Z.LYZ.NS (standard z score) ([1]; dose 0.40 uM) | Dose.FC.LYZ.NS (log2 fold change) ([1]; dose 2.00 uM) | Z.LYZ.NS (standard z score) ([1]; dose 2.00 uM) | Dose.FC.LYZ.NS (log2 fold change) ([1]; dose 10.00 uM) | Z.LYZ.NS (standard z score) ([1]; dose 10.00 uM) | Dose.FC.LYZ.S (log2 fold change) ([2]; dose 0.08 uM) | Dose.FC.LYZ.S (log2 fold change) ([2]; dose 0.40 uM) | Dose.FC.LYZ.S (log2 fold change) ([2]; dose 2.00 uM) | Dose.FC.LYZ.S (log2 fold change) ([2]; dose 10.00 uM) | Dose.FC.CTG (log2 fold change) (ENR+CD organoids; dose 0.08 uM) | Z.CTG (standard z score) (ENR+CD organoids; dose 0.08 uM) | Dose.FC.CTG (log2 fold change) (ENR+CD organoids; dose 0.40 uM) | Z.CTG (standard z score) (ENR+CD organoids; dose 0.40 uM) | Dose.FC.CTG (log2 fold change) (ENR+CD organoids; dose 2.00 uM) | Z.CTG (standard z score) (ENR+CD organoids; dose 2.00 uM) | Dose.FC.CTG (log2 fold change) (ENR+CD organoids; dose 10.00 uM) | Z.CTG (standard z score) (ENR+CD organoids; dose 10.00 uM) |
| --- | --- | --- | --- | --- | --- | --- | --- | --- | --- | --- | --- | --- | --- | --- | --- | --- | --- | --- | --- | --- |
| O=C(c1cn(Cc2cncn2Cc2ccc(Br)cc2)cc1-c1cccc2ccccc12)N1CCOCC1 [LB42708] | −0.116 | −1.010 | −0.140 | −1.221 | −0.176 | −1.531 | −0.182 | −1.587 | −0.089 | −0.144 | −0.238 | −0.233 | −0.072 | −0.172 | −0.342 | −0.817 | −0.116 | −0.277 | −0.706 | −1.685 |
| Cc1c(C(=O)Nc2ccc(N3C[C@@H](C)O[C@@H](C)C3)nc2)cccc1-c1ccc(OC(F)(F)F)cc1 [LDE225 (NVP-LDE225, Erismodegib)] | 0.085 | 0.739 | 0.101 | 0.881 | 0.011 | 0.094 | 0.049 | 0.426 | 0.095 | 0.074 | 0.002 | 0.006 | 0.107 | 0.255 | 0.067 | 0.159 | 0.229 | 0.546 | −0.001 | −0.002 |
| Cc1cc(Nc2ncc(Cl)c(Nc3ccccc3S(=O)(=O)C(C)C)n2)c(OC(C)C)cc1C1CCNCC1 [LDK378] | 0.061 | 0.534 | −0.053 | −0.465 | −0.195 | −1.702 | −0.338 | −2.939 | 0.118 | −0.047 | −0.281 | −0.487 | 0.135 |  | 0.004 |  | −0.364 |  | −1.292 |  |
| c1cc(-c2cnn3cc(-c4ccc(N5CCNCC5)cc4)cnc23)c2cccnc2c1 [LDN-212854] | 0.095 | 0.823 | 0.051 | 0.446 | −0.217 | −1.885 | −0.273 | −2.375 | 0.162 | 0.026 | −0.292 | −0.399 | 0.238 | 0.568 | 0.129 | 0.309 | −0.475 | −1.134 | −1.263 | −3.018 |
| C[C@H](NC(=O)[C@@H](O)c1cc(F)cc(F)c1)C(=O)N[C@@H]1C(=O)N(C)c2ccccc2-c2ccccc21 [LY411575] | 0.040 | 0.347 | −0.050 | −0.434 | −0.069 | −0.598 | −0.109 | −0.949 | 0.024 | 0.041 | −0.091 | −0.157 | 0.035 | 0.083 | −0.172 | −0.411 | −0.172 | −0.412 | −0.259 | −0.618 |
| Cc1cccc(-c2nn3c(c2-c2ccnc4ccc(C(N)=O)cc24)CCC3)n1 [LY2157299] | 0.227 | 1.973 | 0.140 | 1.221 | 0.092 | 0.799 | 0.162 | 1.408 | 0.187 | 0.199 | 0.113 | 0.223 | 0.091 | 0.218 | 0.137 | 0.328 | 0.017 | 0.041 | 0.095 | 0.226 |
| CC(C)(C)Cn1c(N)nc2ccc(-c3[nH]c(C(C)(C)C)nc3-c3ccc(F)cc3)nc21 [LY2228820] | 0.065 | 0.569 | −0.100 | −0.874 | 0.043 | 0.377 | −0.126 | −1.099 | −0.017 | −0.054 | −0.130 | −0.164 | −0.299 | −0.715 | −0.340 | −0.812 | −0.339 | −0.810 | −0.332 | −0.793 |
| Cc1cnc(NC(=O)Nc2cc(Br)c(C)cc2OC[C@@H]2CNCCO2)cn1 [LY2603618] | −0.005 | −0.046 | −0.091 | −0.791 | −0.193 | −1.685 | −0.233 | −2.026 | 0.009 | −0.147 | −0.269 | −0.356 | −0.004 | −0.010 | −0.238 | −0.567 | −0.396 | −0.946 | −0.983 | −2.347 |
